# According to US10655140B2, “Herbicide-resistant protein, encoding gene and use thereof” (BEIJING DABEINONG BIOTECHNOLOGY CO., LTD., priority 2015, dated 2020):
# Experiments:
# [1] = system: Arabidopsis T1 plants transformed with 24DT22 nucleotide sequence, control nucleotide sequence and wild-type Arabidopsis plants; experiment: Herbicide resistance effect test of transgenic Arabidopsis T1 plants (spraying); assay type: in vivo, Arabidopsis thaliana; conditions: Arabidopsis genotype 24DT22; for High resistant (number of plants): 560 g ae/ha (1-fold field concentration), growth consistent with blank solvent 7 days after spraying; for Moderate resistant (number of plants): curly rosette leaves 7 days after spraying; for Low resistant (number of plants): incapable of bolting 14 days after spraying
# Description: 24DT22 gene was used to transform Arabidopsis for the first time. At first, T1 transformants were selected from the background of un-transformed seeds, using glufosinate-ammonium selection scheme. About 20000 T1 seeds are screened among which 314 strains of T1 generation positive transformants (PAT gene) were identified, i.e. the transformation efficiency was about 1.6%. Herbicide resistance effect tests to 2,4-D dimethyl ammonium salt and agroxone of Arabidopsis T1 plants transformed with 24DT22 nucleotide sequence, control nucleotide sequence respectively and wild-type Arabidopsis plants were performed after 18 days of planting.
# Arabidopsis T1 plants transformed with 24DT22 nucleotide sequence, control nucleotide sequence respectively and wild-type Arabidopsis plants were sprayed with 2,4-D dimethyl ammonium salt (560 g ae/ha, 1-fold concentration in field), agroxone (560 g ae/ha, 1-fold concentration in field) and blank solvent (water). Resistance conditions of the plants were counted 7 days and 14 days after spraying. Plants with growth conditions consistent with blank solvent (water) 7 days after spaying were classified as highly resistant plants; Plants with curly rosette leaves 7 days after spaying were classified as moderately resistant plants; Plants incapable of bolting 14 days after spaying were classified as low-resistant plants and the dead plants 14 days after spaying were classified as non-resistant plants. Because each Arabidopsis T1 plant is an independent transformation event, significant differences of individual T1 responses can be expected under a given dose.
# [2] = system: Soybean plants containing 24DT22 nucleotide sequence, control nucleotide sequence and wild type soybean plants; experiment: Herbicide resistance effect test of transgenic soybean T1 plants (spraying, damage degree); assay type: in vivo, soybean (Zhonghuang 13); conditions: for Average damage % 6HAT: 6 hours after spraying; for Average damage % 2DAT: 2 days after spraying
# Method: Herbicide resistance effects tests to 2,4-D dimethyl ammonium salt and agroxone of soybean plants containing 24DT22 nucleotide sequence and control nucleotide sequence respectively and wild type soybean plants (stages V3-V4) were performed respectively.
# Soybean plants containing 24DT22 nucleotide sequence, control nucleotide sequence and wild type soybean plants were taken and spayed with 2,4-D dimethyl ammonium salt (2240 g ae/ha, four-folds concentration in field), agroxone (2240 g ae/ha, four-folds concentration in field) and blank solvent (water). Take statistics of the damage degree of each plant caused by herbicides according to the curling degree of leaves and the damage degree of growing point six hours ([…]), two days (2DAT), seven days (7DAT) and 14 days (14DAT) after spraying respectively: if leaves are flat like wild-type leaves and the growing point is intact, the damage degree is 0%; if leaves curl up and wilt and the growing point is died, the damage degree is 100%. There are three strains contained a transferred 24DT22 nucleotide sequence (S1, S2 and S3), two strains contained a transferred control sequence (S4 and S5) and one wild-type strain (CK1) in total; select 10-15 plants from each strain for testing.
# [3] = system: Corn plants containing 24DT22 nucleotide sequence, control nucleotide sequence and wild type corn plants; experiment: Herbicide-resistance effect test of transgenic corn T1 plants (prop/brace root development); assay type: in vivo, corn (Zong 31); conditions: 21 days after spraying
# Method: Herbicide resistance effects tests to 2,4-D dimethyl ammonium salt and agroxone of corn plants containing 24DT22 nucleotide sequence, control nucleotide sequence respectively and wild type corn plants (stages V3-V4) were performed respectively.
# Corn plants containing 24DT22 nucleotide sequence, control nucleotide sequence respectively and wild type corn plants were taken and spayed with 2,4-D dimethyl ammonium salt (8960 g ae/ha, 16-folds concentration in field), agroxone (8960 g ae/ha, 16-folds concentration in field) and blank solvent (water) respectively. Prop root development was counted 21 days after spaying. Three strains (S6, S7 and S8) of corn plants transformed with 24DT22 nucleotide sequence, two strains (S9 and S10) of corn plants transformed with control nucleotide sequence and 1 strain of wild type (CK2) corn were selected and 10-15 plants from each stain were tested.
# [4] = soybean strain S1 (24DT22), 2240 g ae/ha (4-fold field concentration)
# [5] = soybean strain S2 (24DT22), 2240 g ae/ha
# [6] = soybean strain S3 (24DT22), 2240 g ae/ha
# [7] = corn strain S8 (24DT22), 8960 g ae/ha
smiles,measurement,setting,value
Cc1cc(Cl)ccc1OCC(=O)O [agroxone],High resistant (number of plants),[1],25
same,Moderate resistant (number of plants),[1]; 560 g ae/ha,3
same,Low resistant (number of plants),[1]; 560 g ae/ha,1
same,Average damage % 6HAT,[2]; [4],10%
same,Average damage % 6HAT,[2]; [5],16%
same,Average damage % 2DAT,[2]; [5],11%
same,Average damage % 7DAT,"[2]; soybean strain S2 (24DT22), 2240 g ae/ha, 7 days after spraying",6%
same,Average damage % 6HAT,[2]; [6],7%
same,Average damage % 2DAT,[2]; [6],4%
same,Normal development of brace roots (number of plants),"[3]; corn strain S6 (24DT22), 8960 g ae/ha (16-fold field concentration)",13
same,Normal development of brace roots (number of plants),"[3]; corn strain S7 (24DT22), 8960 g ae/ha",14
same,Normal development of brace roots (number of plants),[3]; [7],13
same,Abnormal development of brace roots (number of plants),"[3]; corn strain S10 (control sequence), 8960 g ae/ha",11
"CNC.O=C(O)COc1ccc(Cl)cc1Cl [2,4-D dimethyl ammonium salt]",High resistant (number of plants),[1],28
same,Moderate resistant (number of plants),[1]; 560 g ae/ha,1
same,Non-resistant (number of plants),"[1]; 560 g ae/ha, dead 14 days after spraying",0
same,Low resistant (number of plants),[1]; 560 g ae/ha,2
same,Average damage % 6HAT,[2]; [4],6%
same,Average damage % 6HAT,[2]; [5],11%
same,Average damage % 6HAT,[2]; [6],3%
same,Average damage % 2DAT,[2]; [6],0%
same,Abnormal development of brace roots (number of plants),"[3]; corn strain CK2 (wild type), 8960 g ae/ha",15
same,Normal development of brace roots (number of plants),[3]; [7],10
